Experimental data: patent US20240057617A1, “COMPOSITIONS AND METHODS FOR MEALYBUG MONITORING AND CONTROL” (The State of Israel, Ministry of Agriculture & Rural …, priority 2019, published 2024)

What was measured:
[1] = test system: N. viridis males; test: Flight bioassay with baited sticky traps in rearing room; format: in vivo, Nipaecoccus viridis; details: for average males caught on sticky trap: 20 μg in polyethylene vial, 12 days, mean ±SE, N=12; for statistical comparison of male catches per day with control: Kruskal-Wallis P=0.001, Conover's test at α=0.05
Method: Insects. N. viridis populations were collected from two citrus groves in Israel, in West Negev and the Galilee areas. These populations were used to establish a colony on sprouted potatoes (Solanum tuberosum) in a rearing room at 25±1° C., 50-60% relative humidity, and under a photoperiod of 14L:10D. First stage larval instars were separated to a different cage and emerged adult males were removed manually each day (Levi-Zada et al. 2014). Adult females, 10 days after the last molt, were transferred to clean potato sprouts for further use in experiments.
Flight bioassays of males compared the attractiveness of the female produced components in a 3×3 m^2 rearing room in which a colony of mealybugs, in several open plastic containers, was placed on the floor in the center. Traps consisting of white cards (18×10 cm^2) covered with 80% polyisobutene adhesive (Rimifoot, Rimi, Petah Tikva, Israel) were baited with 0.5 ml 5×8 mm ID×OD polyethylene vials (Just Plastic, Norfolk, UK) containing either 20 μg of γ-necrodol (I), γ-necrodyl isobutyrate (II), their mixture (I+II, 20 μg each), each in 200 μl n-hexane solution, or only 200 μl n-hexane control. The baited traps were hung at 1.2 m height, separated by 2.8 m and were rotated in position every day for 12 days. The Kruskal-Wallis rank sum test and post-hoc Conover tests above were used to compare catches on treatments for statistical differences.

[2] = test system: N. viridis males; test: Petri dish choice bioassay (arrestment of males on impregnated paper disks); format: in vivo, Nipaecoccus viridis; details: for mean number of males attracted to bait (arrested on paper disk): 10 ng on filter paper disk, 24 males released, counted after 1 h, mean ±SE, n=6
Method: Insects. N. viridis populations were collected from two citrus groves in Israel, in West Negev and the […] areas. These populations were used to establish a colony on sprouted potatoes (Solanum tuberosum) in a rearing room at 25±1° C., 50-60% relative humidity, and under a photoperiod of […]:10D. First stage larval instars were separated to a different cage and emerged adult males were removed manually each day (Levi-Zada et al. 2014). Adult females, 10 days after the last molt, were transferred to clean potato sprouts for further use in experiments. Behavioral Bioassays. The two putative female sex pheromone components and their 1:1 mixture were tested in 14-cm diameter glass Petri dish arenas (Mendel et al. 2012). Four filter paper disks (5-mm diameter, Whatman No. 1) impregnated with 1 μl n-hexane solutions containing 10 ng γ-necrodol (I), 10 ng γ-necrodyl isobutyrate (II), 5 ng of each I+II combined, and solvent only (control) were equally spaced in random order on the periphery of the arena in each test (n=6). Twenty-four males were released in each of the tests at the center of a Petri dish and after 1 h the number of males found on each paper disk was recorded. […] If a significant difference was found then post-hoc pairwise Conover tests with Bonferroni correction for multiple comparisons was performed (same PMCMR package).

Compound | average males caught on sticky trap [1] [males per day] | statistical comparison of male catches per day with control [1] | mean number of males attracted to bait (arrested on paper disk) [2] [males] | statistical comparison of male arrestment with control ([2]; Kruskal-Wallis, post-hoc Conover tests with Bonferroni correction, all P<0.0001)
CC1=C(C)C(C)(C)C(CO)C1 (stereo not shown) [compound I, 2,2,3,4-tetramethyl-3-cyclopentene-1-methanol] | 139±41 | not significantly different | 0.5±0.2 | 
γ-necrodyl isobutyrate [compound II] | 654±178 | significantly more | 3.16±0.7 | significantly different from I or control
